Values joined by “and” are separate entries in the source; they are usually repeats but may differ in a detail not shown here. Equal entries are not always repeated.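 Following 48 hours of exposure in 96-well plates, responses at five concentrations were used to interpolate endpoints linearly. GI50 marks 50% less growth. TGI: concentration producing complete growth inhibition.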
Experiments:
Assay in all cases: inhibition of tumour cell growth, NCI panel, 48 h
COLO 205 colon = tested on: COLO 205 colon
HOP-92 NSCLC = tested on: HOP-92 NSCLC
IGROV1 ovarian = tested on: IGROV1 ovarian
MDA-MB-435 = tested on: MDA-MB-435
NCI-H226 lung = tested on: NCI-H226 lung
NCI-H23 lung = tested on: NCI-H23 lung
NCI-H460 lung = tested on: NCI-H460 lung
OVCAR-3 ovarian = tested on: OVCAR-3 ovarian
RPMI-8226 leukemia = tested on: RPMI-8226 leukemia
RXF 393 renal = tested on: RXF 393 renal

| Compound | TGI (COLO 205 colon) | TGI (HOP-92 NSCLC) | TGI (IGROV1 ovarian) | TGI (MDA-MB-435) [µM] | TGI (NCI-H226 lung) | TGI (NCI-H23 lung) | TGI (NCI-H460 lung) | TGI (OVCAR-3 ovarian) | TGI (RPMI-8226 leukemia) | TGI (RXF 393 renal) | GI50 (COLO 205 colon) | GI50 (HOP-92 NSCLC) [µM] | GI50 (IGROV1 ovarian) | GI50 (MDA-MB-435) [µM] | GI50 (NCI-H226 lung) | GI50 (NCI-H23 lung) | GI50 (NCI-H460 lung) | GI50 (OVCAR-3 ovarian) | GI50 (RPMI-8226 leukemia) | GI50 (RXF 393 renal) |
| --- | --- | --- | --- | --- | --- | --- | --- | --- | --- | --- | --- | --- | --- | --- | --- | --- | --- | --- | --- | --- |
| CC(=O)OCc1ccc(O)c(C=O)c1 | > 100 µM | > 100 µM | > 100 µM | > 100 | > 100 µM | > 100 µM | > 100 µM | > 100 µM | > 100 µM | > 100 µM |  |  |  |  |  |  |  |  |  |  |
| COc1cc(-c2csc(NC(=O)Nc3cc(C(F)(F)F)cc(C(F)(F)F)c3)n2)cc(OC)c1OC | 3.45 µM | 4.36 µM | 18.1 µM | 10.5 | 12 µM | 13.2 µM | 10.8 µM | 10.6 µM | 3.76 µM | 6.17 µM | 1.8 µM | 1.35 | 4.25 µM | 2.81 | 2.87 µM | 2.38 µM | 2.74 µM | 2.39 µM | 0.967 µM | 2.13 µM |
| COc1c2c(c(CC=C(C)C)c3oc(=O)c(-c4ccc(O)cc4)c(O)c13)OC(C)(C)C=C2 | 40.2 µM | 58.7 µM | 44.9 µM | 45.7 | 62 µM | > 100 µM | 68.4 µM | 67.2 µM | 75.3 µM | 12.4 µM |  |  |  |  |  |  |  |  |  |  |
| NC(=S)N/N=C/c1ccc(O)cn1 | > 1500 µM and 655 µM | > 1300 µM | 916 µM and 827 µM | > 1130 | 83.7 µM and 374 µM |  | 595 µM | > 1500 µM and 240 µM | > 1500 µM and 662 µM | > 1500 µM and 552 µM | 35.8 µM and 55 µM and 8.96 µM | 6.73 | 50.9 µM and 27.1 µM |  | 29.7 µM | 3.48 µM | 29.1 µM | 19.9 µM and 5.16 µM | 22.3 µM and 6.64 µM | 20.5 µM and 83.3 µM and 14.6 µM |
| Clc1cccc(N2CCN(CCN3CCc4c([nH]c5ccccc45)C3c3cccnc3)CC2)c1 (configuration not stated) | > 84 µM | > 86.3 µM | > 100 µM | > 100 | > 62.4 µM | > 100 µM | > 100 µM | > 100 µM | > 84.1 µM | > 100 µM |  |  |  |  |  |  |  |  |  |  |
| N#C/C(=C\Nc1ccccn1)C(=O)c1ccco1 | > 100 µM | > 100 µM | > 100 µM | > 100 | > 100 µM | > 100 µM | > 100 µM | > 100 µM | > 100 µM | > 100 µM |  |  |  |  |  |  |  |  |  |  |
| CCOC(=O)NC1=C(N2CC2)C(=O)C(NC(=O)OCC)=C(N2CC2)C1=O | 25 µM and 33 µM and 51.1 µM | 16.1 µM and 11.2 µM and 10.1 µM | 25 µM and 18.1 µM and 30.6 µM | 7.28 | 25 µM and 20 µM and 43 µM | 15.6 µM and 14.1 µM and 7.55 µM | 20 µM and 16.2 µM and 31 µM | 17.4 µM and 12.9 µM and 16.1 µM | 19 µM and 20.2 µM and 10.6 µM | 25 µM and 14.4 µM and 12.9 µM | 15.1 µM and 8.56 µM | 6.18 | 8.21 µM and 7.5 µM |  | 18 µM and 11 µM | 2.87 µM and 1.61 µM | 0.505 µM and 0.721 µM | 5.91 µM and 5.8 µM | 9.3 µM | 13 µM and 5.74 µM |
| O=c1oc(-c2ccccc2)cc2cccc(O)c12 | > 100 µM | 61.6 µM | > 100 µM | > 100 | 51 µM | 61.5 µM | > 100 µM | 85.8 µM | > 100 µM | > 70.9 µM | > 100 µM | 16.8 | 23 µM | 69 | 19.4 µM | 19.6 µM | 29 µM | 25.2 µM | 34 µM | 24.8 µM |
